Assay results: patent US9187523B2 (priority 2006, dated 2015)

Target: plasminogen activator (Pla) (Yersinia pestis, UniProt P17811)
Type: biochemical

Sequence of plasminogen activator (Pla) (P17811 21-312 limits assumed): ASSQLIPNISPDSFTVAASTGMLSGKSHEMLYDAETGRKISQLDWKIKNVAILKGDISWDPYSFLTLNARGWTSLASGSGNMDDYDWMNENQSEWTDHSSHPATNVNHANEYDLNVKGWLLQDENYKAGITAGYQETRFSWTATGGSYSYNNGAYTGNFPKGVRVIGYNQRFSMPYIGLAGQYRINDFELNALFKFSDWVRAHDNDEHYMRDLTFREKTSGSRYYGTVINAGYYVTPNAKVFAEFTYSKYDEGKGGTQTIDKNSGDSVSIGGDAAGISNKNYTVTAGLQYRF

pepstatin A
block of plasminogen activator activity: did not block
